Source: patent US10350210B2, “EGFR and ALK dual inhibitor” (PRECEDO PHARMACEUTICALS CO., LTD, priority 2015, dated 2019)

Columns and labels:
Assay type in all cases: cell-based
PC-9 = test: Growth of cancer cells (Cell Titer-Glo viability), PC-9; settings: Homo sapiens; PC-9 (EGFR delE746_A750 mutant), 72 hrs
Summary of the method: (§1)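 Cells are counted as viable by CellTiter-Glo chemiluminescence. Murine BaF3 lines depend on a stably transfected TEL-fused kinase after IL-3 withdrawal, and the NSCLC lines express mutant EGFR.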

NCI-H3122 = test: Growth of cancer cells (Cell Titer-Glo viability), NCI-H3122; settings: Homo sapiens; NCI-H3122 (expressing ALK gene), 72 hrs; read-out: GI50
NCI-H1975 = test: Growth of cancer cells (Cell Titer-Glo viability), NCI-H1975; settings: Homo sapiens; NCI-H1975 (EGFR L858R/T790M double mutant), 72 hrs
Summary of the method: as §1

HCC827 = test: Growth of cancer cells (Cell Titer-Glo viability), HCC827; settings: Homo sapiens; HCC827 (mutant EGFR del19), 72 hrs
Summary of the method: (§2)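 Mouse BaF3 cells retrovirally transduced with human kinase fused to N-terminal TEL fragment, then IL-3 withdrawn so proliferation depends on the transgene. HCC827 carries EGFR del19 and NCI-H3255 EGFR L858R. Viable cells were quantified by CellTiter-Glo chemiluminescence on a microplate reader.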

BaF3-TEL-INSR = test: Cell growth (Cell Titer-Glo viability), BaF3-TEL-INSR; settings: Mus musculus; BaF3-TEL-INSR (stably expressing INSR protein), 72 hrs
Text: (§3) By testing the effect of the novel kinase inhibitors on the proliferation of cancer cells, the selectivity of the compounds of the present disclosure in inhibiting the proliferation of cancer cells was further assessed. In this example, human non-small cell lung cancer cell NCI-H1975 (expressing EGFR L858R/T790M double mutant gene), human skin squamous carcinoma cell A431 (expressing wild-type EGFR gene), non-small cell lung cancer NCI-H3255 (expressing EGFR L858R mutant gene), non-small cell lung cancer cell NCI-H3122 (expressing ALK gene), human non-small cell lung cancer cell A549 (expressing wild-type EGFR gene), human non-small cell lung cancer cell NCI-H2122 (expressing wild-type EGFR gene), human non-small cell lung cancer cell NCI-H460 (expressing wild-type EGFR gene), human non-small cell lung cancer cell PC-9 (expressing EGFR delE746_A750 mutant gene), Chinese hamster ovary cell CHO (Cricetulus griseus, hamster, Chinese, ovary), Chinese hamster lung cell CHL, human non-small cell lung cancer cell HCC827 (expressing mutant EGFR del19 gene), human lung adenocarcinoma cell HCC4006 (expressing mutant EGFR del19 gene), human non-small cell lung cancer cell NCI-H2228 (expressing wild-type ALK gene), and mouse primary B cell BaF3 were used, and the above cells were all purchased from ATCC (US). In addition, mouse BaF3-TEL-ALK (stably expressing ALK kinase), mouse BaF3-ALK-F1174L (stably expressing mutant ALK F1174L kinase), mouse BaF3-NPM-ALK (stably expressing ALK kinase), mouse BaF3-TEL-EGFR (stably expressing EGFR kinase), mouse BaF3-TEL-EGFR-T790M (stably expressing EGFR T790M mutant kinase), mouse BaF3-FL-EGFR-Del19 (stably expressing EGFR delE746_A750 mutant kinase), mouse BaF3-TEL-EGFR-L858R (stably expressing EGFR L858R mutant kinase), mouse BaF3-FL-EGFR-T790M-L858R (stably expressing EGFR T790M/L858R mutant kinase), mouse BaF3-TEL-INSR (stably expressing INSR protein), mouse BaF3-TEL-IGF1R (stably expressing IGF1R Protein), mouse BaF3-EML4-ALK (stably expressing EML4-ALK Protein), mouse BaF3-TEL-JAK3 (stably expressing JAK3 kinase protein), mouse BaF3-TEL-CSF1R (stably expressing CSF1R protein), and mouse BaF3-TEL-ALK-F1196M (stably expressing ALK F1196M mutant kinase) were also used in this example. The above cell lines were all established by our laboratory via the following process: kinase proteins or protein domain sequences of human ALK, ALK F1174L, EGFR, EGFR T790M, EGFR delE746_A750, EGFR L858, EGFR T790M/L858R, INSR, IGF1R, EML4-ALK, JAK3, CSF1R, ALK F1196M were amplified respectively by PCR, and were respectively inserted into MSCV-Puro vector (Clontech) with N-terminal TEL fragments and/or NPM fragments and/or TPR fragments; the resultants were stably transfected into mouse BaF3 cells by the means of retrovirus, and the IL-3 growth factors were removed, and eventually the ALK, ALK F1174L, EGFR, EGFR T790M, EGFR delE746_A750, EGFR L858, EGFR T790M/L858R, INSR, IGF1R, EML4-ALK, JAK3, CSF1R, ALK F1196M-transferred protein dependent cell lines were obtained.
(§4) The number of viable cells was determined quantitatively by a microplate reader using Cell Titer-Glo® (Promega, US) chemiluminescence cell viability assay kit.

BaF3-TEL-JAK3 = test: Cell growth (Cell Titer-Glo viability), BaF3-TEL-JAK3; settings: Mus musculus; BaF3-TEL-JAK3 (stably expressing JAK3 kinase protein), 72 hrs
Text: as §3, §4

BaF3-EML4-ALK = test: Cell growth (Cell Titer-Glo viability), BaF3-EML4-ALK; settings: Mus musculus, Ba/F3 EML4-ALK; BaF3-EML4-ALK (stably expressing EML4-ALK protein), 72 hrs
Text: as §3, §4

BaF3-TEL-CSF1R = test: Cell growth (Cell Titer-Glo viability), BaF3-TEL-CSF1R; settings: Mus musculus; BaF3-TEL-CSF1R (stably expressing CSF1R protein), 72 hrs
Text: as §3, with “The above cell lines were all established by our laboratory via the following process: kinase proteins or protein domain sequences of human ALK, ALK F1174L, EGFR, EGFR T790M, EGFR delE746_A750, EGFR L858, EGFR T790M/L858R, INSR, IGF1R, EML4-ALK, JAK3, CSF1R, ALK F1196M were amplified respectively by PCR, and were respectively inserted into MSCV-Puro vector (Clontech) with N-terminal TEL fragments and/or NPM fragments and/or TPR fragments; the resultants were stably transfected into mouse BaF3 cells by the means of retrovirus, and the IL-3 growth factors were removed, and eventually the ALK, ALK F1174L, EGFR, EGFR T790M, EGFR delE746_A750, EGFR L858, EGFR T790M/L858R, INSR, IGF1R, EML4-ALK, JAK3, CSF1R, ALK F1196M-transferred protein dependent cell lines were obtained.” left out
as §4

BaF3 = test: Cell growth (Cell Titer-Glo viability), BaF3; settings: BaF3 mouse primary B cell, 72 hrs
BaF3-TEL-EGFR-T790M = test: Cell growth (Cell Titer-Glo viability), BaF3-TEL-EGFR-T790M; settings: Mus musculus; BaF3-TEL-EGFR-T790M (EGFR T790M mutant kinase), 72 hrs
Summary of the method: as §2

BaF3-TEL-IGF1R = test: Cell growth (Cell Titer-Glo viability), BaF3-TEL-IGF1R; settings: Mus musculus; BaF3-TEL-IGF1R (stably expressing IGF1R protein), 72 hrs
Text: as §3, with “The above cell lines were all established by our laboratory via the following process: kinase proteins or protein domain sequences of human ALK, ALK F1174L, EGFR, EGFR T790M, EGFR delE746_A750, EGFR L858, EGFR T790M/L858R, INSR, IGF1R, EML4-ALK, JAK3, CSF1R, ALK F1196M were amplified respectively by PCR, and were respectively inserted into MSCV-Puro vector (Clontech) with N-terminal TEL fragments and/or NPM fragments and/or TPR fragments; the resultants were stably transfected into mouse BaF3 cells by the means of retrovirus, and the IL-3 growth factors were removed, and eventually the ALK, ALK F1174L, EGFR, EGFR T790M, EGFR delE746_A750, EGFR L858, EGFR T790M/L858R, INSR, IGF1R, EML4-ALK, JAK3, CSF1R, ALK F1196M-transferred protein dependent cell lines were obtained.” left out
as §4

BaF3-TEL-ALK = test: Cell growth (Cell Titer-Glo viability), BaF3-TEL-ALK; settings: Mus musculus; BaF3-TEL-ALK (stably expressing ALK kinase), 72 hrs
Summary of the method: as §2

A549 = test: Growth of cancer cells (Cell Titer-Glo viability), A549; settings: Homo sapiens; A549 (wild-type EGFR), 72 hrs
BaF3-TEL-ALK-F1196M = test: Cell growth (Cell Titer-Glo viability), BaF3-TEL-ALK-F1196M; settings: Mus musculus; BaF3-TEL-ALK-F1196M (ALK F1196M mutant kinase), 72 hrs
Text: By testing the effect of the novel kinase inhibitors on the proliferation of cancer cells, the selectivity of the compounds of the present disclosure in inhibiting the proliferation of cancer cells was further assessed. In this example, human non-small cell lung cancer cell NCI-H1975 (expressing EGFR L858R/T790M double mutant gene), human skin squamous carcinoma cell A431 (expressing wild-type EGFR gene), non-small cell lung cancer NCI-H3255 (expressing EGFR L858R mutant gene), non-small cell lung cancer cell NCI-H3122 (expressing ALK gene), human non-small cell lung cancer cell A549 (expressing wild-type EGFR gene), human non-small cell lung cancer cell NCI-H2122 (expressing wild-type EGFR gene), human non-small cell lung cancer cell NCI-H460 (expressing wild-type EGFR gene), human non-small cell lung cancer cell PC-9 (expressing EGFR delE746_A750 mutant gene), Chinese hamster ovary cell CHO (Cricetulus griseus, hamster, Chinese, ovary), Chinese hamster lung cell CHL, human non-small cell lung cancer cell HCC827 (expressing mutant EGFR del19 gene), human lung adenocarcinoma cell HCC4006 (expressing mutant EGFR del19 gene), human non-small cell lung cancer cell NCI-H2228 (expressing wild-type ALK gene), and mouse primary B cell BaF3 were used, and the above cells were all purchased from ATCC (US). […]
as §4

BaF3-NPM-ALK = test: Cell growth (Cell Titer-Glo viability), BaF3-NPM-ALK; settings: Mus musculus; BaF3-NPM-ALK (stably expressing ALK kinase), 72 hrs

Question: C=CC(=O)Nc1cc(Nc2ncc(Cl)c(Nc3ccccc3C(=O)NC)n2)c(OC)cc1N1CCN(C2CCCCC2)CC1 [Compound 70, 2-(2-(5-acrylamido-4-(4-cyclohexylpiperazin-1-yl)-2-methoxyphenylamino)-5-chloropyrimidin-4-ylamino)-N-methylbenzamide] was tested. Which GI50 (PC-9) did it give?
Answer: 35 nM

Question: What about the GI50 (NCI-H3122) of the same compound?
Answer: 7.6 nM

Question: And the GI50 (NCI-H1975)?
Answer: 65 nM

Question: What about the GI50 (HCC827) of the same compound?
Answer: 140 nM

Question: And the GI50 (BaF3-TEL-INSR)?
Answer: < 0.3 nM

Question: And the GI50 (BaF3-TEL-JAK3)?
Answer: 58 nM

Question: And the GI50 (BaF3-EML4-ALK)?
Answer: 4.5 nM

Question: What about the GI50 (BaF3-TEL-CSF1R) of the same compound?
Answer: 170 nM

Question: What about the GI50 (BaF3) of the same compound?
Answer: 1000 nM

Question: Which results are given for C=CC(=O)Nc1cc(Nc2ncc(Cl)c(Nc3ccccc3C(=O)NC)n2)c(OC)cc1N1CCC(N2CCOCC2)CC1 [Compound 67, 2-(2-(5-acrylamido-2-methoxy-4-(4-morpholinylpiperidin-1-yl)phenylamino)-5-chloropyrimidin-4-ylamino)-N-methylbenzamide]?
Answer: GI50 (BaF3-TEL-EGFR-T790M): 28 nM; GI50 (PC-9): 9.6 nM; GI50 (NCI-H3122): 4.4 nM; GI50 (NCI-H1975): 14 nM; GI50 (BaF3-TEL-IGF1R): 7.7 nM; GI50 (BaF3-TEL-ALK): 13 nM; GI50 (HCC827): 14 nM; GI50 (BaF3-TEL-INSR): 1.8 nM; GI50 (BaF3-TEL-JAK3): 110 nM; GI50 (BaF3-EML4-ALK): 35 nM; GI50 (A549): 450 nM; GI50 (BaF3): 5400 nM

Question: Which results are given for C=CC(=O)Nc1cc(Nc2ncc(C)c(Nc3ccccc3S(=O)(=O)C(C)C)n2)c(OC)cc1N1CCN(CC)CC1 [Compound 84, N-(2-(4-ethylpiperazin-1-yl)-5-(4-(2-(isopropylsulfonyl)phenylamino)-5-methylpyrimidin-2-ylamino)-4-methoxyphenyl)acrylamide]?
Answer: GI50 (PC-9): 6 nM; GI50 (NCI-H3122): 2 nM; GI50 (NCI-H1975): 43 nM; GI50 (BaF3-TEL-ALK): 1 nM; GI50 (BaF3-TEL-INSR): 4 nM; GI50 (BaF3-TEL-ALK-F1196M): 2 nM; GI50 (BaF3-NPM-ALK): 2 nM; GI50 (BaF3): 6600 nM

Question: What does the source list for C=CC(=O)Nc1cc(Nc2ncc(Cl)c(Nc3ccccc3C(=O)NC)n2)c(OC)cc1N1CCN(C(C)=O)CC1 [Compound 68, 2-(2-(4-(4-ethanoylpiperazin-1-yl)-5-acrylamido-2-methoxyphenylamino)-5-chloropyrimidin-4-ylamino)-N-methylbenzamide]?
Answer: GI50 (BaF3-TEL-EGFR-T790M): 250 nM; GI50 (PC-9): 97 nM; GI50 (NCI-H3122): 12 nM; GI50 (NCI-H1975): 250 nM; GI50 (BaF3-TEL-IGF1R): 41 nM; GI50 (BaF3-TEL-ALK): 120 nM; GI50 (HCC827): 83 nM; GI50 (BaF3-TEL-INSR): 14 nM; GI50 (BaF3-TEL-JAK3): 270 nM; GI50 (BaF3-EML4-ALK): 160 nM; GI50 (A549): 1700 nM; GI50 (BaF3): 5700 nM

Question: Which GI50 (PC-9) does the source give for C=CC(=O)Nc1cc(Nc2ncc(Cl)c(Nc3ccccc3C(=O)NC)n2)c(OC)cc1N1CCN(C(C)C)CC1 [Compound 69, 2-(2-(5-acrylamido-4-(4-isopropylpiperazin-1-yl)-2-methoxyphenylamino)-5-chloropyrimidin-4-ylamino)-N-methylbenzamide] here?
Answer: 15 nM

Question: And the GI50 (NCI-H3122)?
Answer: 4.5 nM

Question: What about the GI50 (NCI-H1975) of the same compound?
Answer: 79 nM

Question: What about the GI50 (HCC827) of the same compound?
Answer: 62 nM

Question: And the GI50 (BaF3-TEL-INSR)?
Answer: 49 nM

Question: What about the GI50 (BaF3-TEL-JAK3) of the same compound?
Answer: 37 nM

Question: What about the GI50 (BaF3-EML4-ALK) of the same compound?
Answer: 1.4 nM

Question: And the GI50 (BaF3-TEL-CSF1R)?
Answer: 100 nM

Question: And the GI50 (BaF3)?
Answer: 1100 nM
